Here are results for 32 molecules from US8846928B2 (Portola Pharmaceuticals, Inc., priority 2010, dated 2014).

Bounds are passed on as bounds.

In general, IC50 refers to the concentration at which inhibition is half-maximal.

The assay addresses T1, full length active recombinant SYK enzyme (Homo sapiens, UniProt P43405).
T1 construct: full length active recombinant SYK enzyme (Millipore, Calif.); purchased Millipore
As to the kind of experiment: Inhibition of Syk tyrosine phosphorylation activity (LANCE TR-FRET kinase assay). Format: biochemical. In general terms: Time-resolved FRET reads energy transfer from a long-lived donor to a nearby acceptor.
Turning to `NC(=O)c1cc(F)c(N[C@@H]2CCOC[C@@H]2N)nc1Nc1ccc2ncsc2c1` [Example 384, 6-((3R,4R)-3-aminotetrahydro-2H-pyran-4-ylamino)-2-(benzo[d]thiazol-6-ylamino)-5-fluoronicotinamide], the half-inhibitory concentration (IC50) fell in the range of 1 to 10 nM. `Cc1cccc(Nc2nc(N[C@@H]3CCOC[C@@H]3N)c(F)cc2C(N)=O)c1` [Example 385, 6-((3R,4R)-3-aminotetrahydro-2H-pyran-4-ylamino)-5-fluoro-2-(m-tolylamino)nicotinamide]: the IC50 lay in the range of 1 to 10 nM. Then `NC(=O)c1cc(F)c(N[C@@H]2CCOC[C@@H]2N)nc1Nc1cccc(Cl)c1` [Example 386, 6-((3R,4R)-3-aminotetrahydro-2H-pyran-4-ylamino)-2-(3-chlorophenylamino)-5-fluoronicotinamide], with 1 to 10 nM; and `Cn1ncc2c(Nc3nc(N[C@@H]4CCCC(F)(F)[C@@H]4N)c(F)cc3C(N)=O)cccc21` [Example 387, 6-((1R,2R)-2-amino-3,3-difluorocyclohexylamino)-5-fluoro-2-(1-methyl-1H-indazol-4-ylamino)nicotinamide], with 100 to 1000 nM; and `NC(=O)c1cc(F)c(N[C@H]2[C@@H](N)CCCC2(F)F)nc1Nc1cccc(Cl)c1` [Example 388, 6-((1S,6S)-6-amino-2,2-difluorocyclohexylamino)-2-(3-chlorophenylamino)-5-fluoronicotinamide], with 1 to 10 nM. Then `Cn1ncc2c(Nc3nc(N[C@H]4[C@@H](N)CCCC4(F)F)c(F)cc3C(N)=O)cccc21` [Example 389, 6-((1S,6S)-6-amino-2,2-difluorocyclohexylamino)-5-fluoro-2-(1-methyl-1H-indazol-4-ylamino)nicotinamide], with 1 to 10 nM.

As to `CCn1ccc2c(Nc3nc(N[C@@H]4CCCC(F)(F)[C@@H]4N)c(F)cc3C(N)=O)cccc21` [Example 390, 6-((1R,2R)-2-amino-3,3-difluorocyclohexylamino)-2-(1-ethyl-1H-indol-4-ylamino)-5-fluoronicotinamide], the IC50 was 10 to 100 nM. Regarding `CC(C)n1ccc2c(Nc3nc(N[C@@H]4CCCC(F)(F)[C@@H]4N)c(F)cc3C(N)=O)cccc21` [Example 391, 6-((1R,2R)-2-amino-3,3-difluorocyclohexylamino)-5-fluoro-2-(1-isopropyl-1H-indol-4-ylamino)nicotinamide], the IC50 was in the range of 10 to 100 nM.

As for `CC(C)Cn1ccc2c(Nc3nc(N[C@@H]4CCCC(F)(F)[C@@H]4N)c(F)cc3C(N)=O)cccc21` [Example 392, 6-((1R,2R)-2-amino-3,3-difluorocyclohexylamino)-5-fluoro-2-(1-isobutyl-1H-indol-4-ylamino)nicotinamide], the IC50 lay in the range of 100 to 1000 nM. The figure for `NC(=O)c1cc(F)c(N[C@@H]2CCCC[C@@H]2N)nc1Nc1csc2ncccc12` [Example 393] is 1 to 10 nM; for `NC(=O)c1cc(F)c(N[C@@H]2CCCC[C@@H]2N)nc1Nc1csc2ccncc12` [Example 394, 6-((1R,2S)-2-aminocyclohexylamino)-5-fluoro-2-(thieno[3,2-c]pyridin-3-ylamino)nicotinamide] it is 10 to 100 nM; for `CN1C(=O)Cc2c(Nc3nc(N[C@@H]4CCCC(F)(F)[C@@H]4N)c(F)cc3C(N)=O)cccc21` [Example 395, 6-((1R,2R)-2-amino-3,3-difluorocyclohexylamino)-5-fluoro-2-(1-methyl-2-oxoindolin-4-ylamino)nicotinamide] it is above 1000 nM.

With `Cn1ccc2c(Nc3nc(N[C@@H]4CCCC[C@@H]4N)ccc3C(N)=O)cccc21` [Example 396, 6-((1R,2S)-2-aminocyclohexylamino)-2-(1-methyl-1H-indol-4-ylamino)nicotinamide], the IC50 was in the range of 1 to 10 nM. For the molecule `Cn1ccc2cc(Nc3nc(N[C@@H]4CCCC[C@@H]4N)ccc3C(N)=O)ccc21` [Example 397, 6-((1R,2S)-2-aminocyclohexylamino)-2-(1-methyl-1H-indol-5-ylamino)nicotinamide], the IC50 was in the range of 1 to 10 nM. On to `Cn1ncc2c(Nc3nc(N[C@@H]4CCCC[C@@H]4N)ccc3C(N)=O)cccc21` [Example 398, 6-((1R,2S)-2-aminocyclohexylamino)-2-(1-methyl-1H-indazol-4-ylamino)nicotinamide], for which the IC50 was 1 to 10 nM. With `Cn1ncc2cc(Nc3nc(N[C@@H]4CCCC[C@@H]4N)ccc3C(N)=O)ccc21` [Example 399, 6-((1R,2S)-2-aminocyclohexylamino)-2-(1-methyl-1H-indazol-5-ylamino)nicotinamide], the IC50 fell in the range of 1 to 10 nM. Then `NC(=O)c1ccc(N[C@@H]2CCCC[C@@H]2N)nc1Nc1ccc2scnc2c1` [Example 400, 6-((1R,2S)-2-aminocyclohexylamino)-2-(benzo[d]thiazol-5-ylamino)nicotinamide], with 1 to 10 nM; and `NC(=O)c1ccc(N[C@@H]2CCCC[C@@H]2N)nc1Nc1cccc2ncsc12` [Example 401, 6-((1R,2S)-2-aminocyclohexylamino)-2-(benzo[d]thiazol-7-ylamino)nicotinamide], with 1 to 10 nM. For `NC(=O)c1ccc(N[C@@H]2CCCC[C@@H]2N)nc1Nc1csc2ncccc12` [Example 402, 6-((1R,2S)-2-aminocyclohexylamino)-2-(thieno[2,3-b]pyridin-3-ylamino)nicotinamide], the IC50 was below 1 nM. Regarding `NC(=O)c1ccc(N[C@@H]2CCCC[C@@H]2N)nc1Nc1ccc2ncsc2c1` [Example 403, 6-((1R,2S)-2-aminocyclohexylamino)-2-(benzo[d]thiazol-6-ylamino)nicotinamide], the half-inhibitory concentration (IC50) was 1 to 10 nM. With `NC(=O)c1ccc(N[C@@H]2CCCC[C@@H]2N)nc1Nc1ccc2nc(O)sc2c1` [Example 404, 6-((1R,2S)-2-aminocyclohexylamino)-2-(2-hydroxybenzo[d]thiazol-6-ylamino)nicotinamide], the 50% inhibitory concentration (IC50) fell in the range of 1 to 10 nM. The figure for `NC(=O)c1cc(F)c(N[C@@H]2CCCC(F)(F)[C@@H]2N)nc1Nc1csc2ncccc12` [Example 405, 6-((1R,2R)-2-amino-3,3-difluorocyclohexylamino)-5-fluoro-2-(thieno[2,3-b]pyridin-3-ylamino)nicotinamide] is 10 to 100 nM; for `NC(=O)c1ccc(N[C@@H]2CCCC[C@@H]2N)nc1Nc1cnc2ccncc2c1` [Example 406, 2-(1,6-naphthyridin-3-ylamino)-6-((1R,2S)-2-aminocyclohexylamino)nicotinamide] it is 10 to 100 nM; for `NC(=O)c1ccc(N[C@@H]2CCCC[C@@H]2N)nc1Nc1cnc2cc[nH]c2c1` [Example 407] it is 10 to 100 nM. The figure for `NC(=O)c1cc(F)c(N[C@@H]2CCCC[C@@H]2N)nc1Nc1cc(F)c[n+]([O-])c1` [Example 408, 3-(6-((1R,2S)-2-aminocyclohexylamino)-3-carbamoyl-5-fluoropyridin-2-ylamino)-5-fluoropyridine 1-oxide] is 100 to 1000 nM; for `NC(=O)c1ccc(N[C@@H]2CCCC[C@@H]2N)nc1Nc1cnn2ccccc12` [Example 419, 6-((1R,2S)-2-aminocyclohexylamino)-2-(pyrazolo[1,5-a]pyridin-3-ylamino)nicotinamide] it is 1 to 10 nM; for `NC(=O)c1cc(F)c(N[C@@H]2CCCC(F)(F)[C@@H]2N)nc1Nc1cnn2ccccc12` [Example 420, 6-((1R,2R)-2-amino-3,3-difluorocyclohexylamino)-5-fluoro-2-(pyrazolo[1,5-a]pyridin-3-ylamino)nicotinamide] it is 10 to 100 nM. The figure for `NC(=O)c1cnc(N[C@@H]2CCCC[C@@H]2N)cc1Nc1cnn2ccccc12` [Example 421, 6-((1R,2S)-2-aminocyclohexylamino)-4-(pyrazolo[1,5-a]pyridin-3-ylamino)nicotinamide] is above 1000 nM; for `NC(=O)c1cnc(N[C@@H]2CCCC[C@@H]2N)cc1Nc1csc2ncccc12` [Example 422] it is above 1000 nM. `CC[C@@H](Nc1nc(Nc2csc3ncccc23)c(C(N)=O)cc1F)C(N)=O` [Example 423, (R)-6-(1-amino-1-oxobutan-2-ylamino)-5-fluoro-2-(thieno[2,3-b]pyridin-3-ylamino)nicotinamide]: the IC50 was in the range of 10 to 100 nM. For `CC[C@@H](Nc1nc(Nc2cnn3ccccc23)c(C(N)=O)cc1F)C(N)=O` [Example 424, (R)-6-(1-amino-1-oxobutan-2-ylamino)-5-fluoro-2-(pyrazolo[1,5-a]pyridin-3-ylamino)nicotinamide], the IC50 lay within 10 to 100 nM. For the molecule `CC[C@@H](Nc1ccc(C(N)=O)c(Nc2csc3ncccc23)n1)C(N)=O` [Example 425, (R)-6-(1-amino-1-oxobutan-2-ylamino)-2-(thieno[2,3-b]pyridin-3-ylamino)nicotinamide], the IC50 is 10 to 100 nM.
